Laboratory results from US20060280817A1, “Pharmaceutical composition useful for the treatment of hepatocellular carcinoma” (priority 2005, published 2006).

Assays:
NIH OVCAR 3 = assay: In vitro cytotoxicity (SRB), NIH OVCAR 3; type: cell-based, human; conditions: NIH OVCAR 3, 1 × 10^−5 M, 48 h
Experimental: (§1) The human cancer cell lines procured from National Cancer Institute, Frederick, U.S.A or National Center for Cell Science; Pune, India. were used in present study. Cells were grown in tissue culture flasks in complete growth medium (RPMI-1640 medium with 2 mM glutamine, 100 μg/ml streptomycin, pH 7.4, sterilized by filtration and supplemented with 10% fetal calf serum and 100 units/ml penicillin before use) at 37° C. in an atmosphere of 5% CO2 and 90% relative humidity in a carbon dioxide incubator. The cells at subconfluent stage were harvested from the flask by treatment with trypsin (0.5% in PBS containing 0.02% EDTA) for determination of cytotoxicity. Cells with viability of more than 98% as determined by trypan blue exclusion were used for assay. […]
(§2) A stock solutions of (20 mg/ml) of test material were prepared in distilled water. […] In vitro cytotoxicity against human cancer cell lines was determined (Monks, A., Scudiero, D., Skehan, P., Shoemaker R., Paull, K., Vistica, D., Hose, C., Langley, j., Cronise, P., Vaigro-Wolff, A., Gray-Goodrich, M., Campbell, H., Mayo, J and Boyd, M. (1991). Feasibility of a high-flux anticancer drug screen using a diverse panel of cultured human tumor cell lines. J. Natl. Cancer Inst. 83, 757-766.) using 96-well tissue culture plates. […] The optical density (OD) was recorded on ELISA reader at 540 nm. […]

NCI-H23 = assay: In vitro cytotoxicity (SRB), NCI-H23; type: cell-based, human; conditions: NCI-H23, 1 × 10^−5 M, 48 h
Experimental: as §1, §2

IMR 32 = assay: In vitro cytotoxicity (SRB), IMR 32; type: cell-based, human; conditions: IMR 32, 1 × 10^−5 M, 48 h
Experimental: as §1, §2

DU 145 = assay: In vitro cytotoxicity (SRB), DU 145; type: cell-based, human; conditions: DU 145, 1 × 10^−5 M, 48 h
Experimental: as §1, §2

SW 620 = assay: In vitro cytotoxicity (SRB), SW 620; type: cell-based, human; conditions: 48 h
Experimental: (§3) The human cancer cell lines procured from National Cancer Institute, Frederick, U.S.A or National Center for Cell Science; Pune, India. were used in present study. Cells were grown in tissue culture flasks in complete growth medium (RPMI-1640 medium with 2 mM glutamine, 100 μg/ml streptomycin, pH 7.4, sterilized by filtration and supplemented with 10% fetal calf serum and 100 units/ml penicillin before use) at 37° C. in an atmosphere of 5% CO2 and 90% relative humidity in a carbon dioxide incubator. The cells at subconfluent stage were harvested from the flask by treatment with trypsin (0.5% in PBS containing 0.02% EDTA) for determination of cytotoxicity. Cells with viability of more than 98% as determined by trypan blue exclusion were used for assay. The cell suspension of the required cell density was prepared in complete growth medium with gentamycin (50 μg/ml) for determination of cytotoxicity.
(§4) A stock solutions of (20 mg/ml) of test material were prepared in distilled water. The stock solutions were serially diluted with complete growth medium containing 50 μg/ml of gentamycin to obtain working test solutions of required concentrations. In vitro cytotoxicity against human cancer cell lines was determined (Monks, A., Scudiero, D., Skehan, P., Shoemaker R., Paull, K., Vistica, D., Hose, C., Langley, j., Cronise, P., Vaigro-Wolff, A., Gray-Goodrich, M., Campbell, H., Mayo, J and Boyd, M. (1991). Feasibility of a high-flux anticancer drug screen using a diverse panel of cultured human tumor cell lines. J. Natl. Cancer Inst. 83, 757-766.) using 96-well tissue culture plates. The 100 μl of cell suspension was added to each well of the 96-well tissue culture plate. The cells were incubated for 24 hours. Test materials in complete growth medium (100 μl) were added after 24 hours incubation to the wells containing cell suspension. The plates were further incubated for 48 hours (at 37° C. in an atmosphere of […] 90% relative humidity in a carbon dioxide incubator) after addition of test material and then the cell growth was stopped by gently layering trichloroacetic acid (TCA, 50 μl, 50%) on top of the medium in all the wells. The plates were incubated at 4° C. for one hour to fix the cells attached to the bottom of the wells. The liquid of all the wells was gently pipetted out and discarded. The plates were washed five times with distilled water to remove TCA, growth medium low molecular weight metabolites, serum proteins etc and air-dried. Cell growth was measured by staining with sulforhodamine B dye (P. Skehan, R. Storeng, D. Scudiero, A. Monks, J. McMohan, D. Vistica, J. T. Warren, H. Bokesch, S. Kenney, M. R. Boyd (1990) New colorimetric cytotoxic Assay for Anticancer—Drug Screening Journal of the National Cancer Institute 82, 1107-1112). The adsorbed dye was dissolved in Tris-Buffer (100 μl, 0.01M, pH 10.4) and plates were gently stirred for 5 minutes on a mechanical stirrer. The optical density (OD) was recorded on ELISA reader at 540 nm.
(§5) The cell growth was calculated by subtracting mean OD value of respective blank from the mean OD value of experimental set. Percent growth in presence of test material was calculated considering the growth in absence of any test material as 100% and in turn percent growth inhibition in presence of test material will be calculated.
(§6) Methodology is the same as given in example 6 except for stock solutions of 1×10^−2M was prepared instead of 20 mg/ml.

T 47 D = assay: In vitro cytotoxicity (SRB), T 47 D; type: cell-based; conditions: Homo sapiens, T47D, 1 × 10^−5 M, 48 h, read-out: percent growth inhibition
Experimental: as §1, §2

HT 29 = assay: In vitro cytotoxicity (SRB), HT 29; type: cell-based, human; conditions: 48 h
Experimental: as §3, §4, §5, §6

ZR 75-1 = assay: In vitro cytotoxicity (SRB), ZR 75-1; type: cell-based; conditions: Homo sapiens; ZR 75-1, 1 × 10^−5 M, 48 h; read-out: percent growth inhibition
Experimental: as §1, §2

SK N SH = assay: In vitro cytotoxicity (SRB), SK N SH; type: cell-based, human; conditions: 48 h
Experimental: as §3, §4, §5, §6

MCF-7 = assay: In vitro cytotoxicity (SRB), MCF-7; type: cell-based; conditions: Homo sapiens, MCF7; MCF-7, 1 × 10^−5 M, 48 h; read-out: percent growth inhibition
Experimental: as §1, §2

NIH OVCAR5 = assay: In vitro cytotoxicity (SRB), NIH OVCAR5; type: cell-based; conditions: Homo sapiens, OVCAR-5; NIH OVCAR5, 1 × 10^−5 M, 48 h; read-out: percent growth inhibition
Experimental: as §1, §2

SNB 78 = assay: In vitro cytotoxicity (SRB), SNB 78; type: cell-based, human; conditions: SNB 78, 1 × 10^−5 M, 48 h
Experimental: as §1, §2

SiHa = assay: In vitro cytotoxicity (SRB), SiHa; type: cell-based, human; conditions: 48 h
Experimental: as §3, §4, §5, §6

HOP-62 = assay: In vitro cytotoxicity (SRB), HOP-62; type: cell-based, human; conditions: 48 h
Experimental: as §3, §4, §5, §6

HCT 15 = assay: In vitro cytotoxicity (SRB), HCT 15; type: cell-based, human; conditions: 48 h
Experimental: as §3, §4, §5, §6

Colo 205 = assay: In vitro cytotoxicity (SRB), Colo 205; type: cell-based, human; conditions: 48 h
Experimental: as §3, §4, §5, §6

SK N MC = assay: In vitro cytotoxicity (SRB), SK N MC; type: cell-based; conditions: Homo sapiens, 1 × 10^−5 M, 48 h, read-out: percent growth inhibition
Experimental: as §1, §2

A 549 = assay: In vitro cytotoxicity (SRB), A 549; type: cell-based, human; conditions: A 549, 1 × 10^−5 M, 48 h
Experimental: as §1, §2

KB = assay: In vitro cytotoxicity (SRB), KB; type: cell-based, human; conditions: 2 × 10^−5 M, 48 h
Experimental: as §1, §2

Compound `CO[C@@]12[C@H](COC(N)=O)C3=C(C(=O)C(C)=C(N)C3=O)N1C[C@@H]1N[C@@H]12` [Mitomycin C] has a percent growth inhibition (NIH OVCAR 3) of 31%, a percent growth inhibition (NCI-H23) of 59% and a percent growth inhibition (IMR 32) of 83%. For the same compound, the percent growth inhibition (DU 145) was 69%.

Compound `COc1cccc2c1C(=O)c1c(O)c3c(c(O)c1C2=O)C[C@@](O)(C(=O)CO)C[C@@H]3O[C@H]1C[C@H](N)[C@H](O)[C@H](C)O1` [Adriamycin] has a percent growth inhibition (SW 620; SW 620, 1 × 10^−5 M) of 59%, an inhibition (T 47 D) of 34% and a percent growth inhibition (HT 29; HT 29, 1 × 10^−5 M) of 69%. The inhibition (ZR 75-1) was 46%, the inhibition at 10 µM (SK N SH; Homo sapiens, SK N SH, 1 × 10^−5 M, read-out: percent growth inhibition) was 82% and the inhibition (MCF-7) was 72%. For the same compound, the inhibition (NIH OVCAR5) was 45%, the percent growth inhibition (IMR 32) was 87% and the percent growth inhibition (SNB 78) was 20%.

`O=C1C[C@@H](c2ccc(O)c(O[C@@H]3O[C@H](CO)[C@@H](O)[C@H](O)[C@H]3O)c2)Oc2cc(O[C@@H]3O[C@H](CO)[C@@H](O)[C@H](O)[C@H]3O)ccc21` [Butrin] showed a percent growth inhibition (SiHa; 1 × 10^−4 M) of 80%, a percent growth inhibition (SiHa; 1 × 10^−5 M) of 0% and a percent growth inhibition (SiHa; 1 × 10^−6 M) of 0%. The percent growth inhibition (HOP-62; HOP-62, 1 × 10^−4 M) was 65%, the percent growth inhibition (HOP-62; HOP-62, 1 × 10^−5 M) was 6% and the percent growth inhibition (HOP-62; HOP-62, 1 × 10^−6 M) was 0%. It also gave a percent growth inhibition (SW 620; SW620, 1 × 10^−4 M) of 92%, a percent growth inhibition (SW 620; SW 620, 1 × 10^−5 M) of 0% and a percent growth inhibition (SW 620; SW620, 1 × 10^−6 M) of 0%. The percent growth inhibition (HT 29; HT 29, 1 × 10^−5 M) was 11%, the percent growth inhibition (HT 29; HT-29, 1 × 10^−4 M) was 99% and the percent growth inhibition (HT 29; HT-29, 1 × 10^−6 M) was 9%. The percent growth inhibition (SK N SH; SK N SH, 1 × 10^−5 M) was 8%, the percent growth inhibition (SK N SH; SK-NSH, 1 × 10^−4 M) was 83% and the percent growth inhibition (SK N SH; SK-NSH, 1 × 10^−6 M) was 9%. It also gave a percent growth inhibition (HCT 15; HCT-15, 1 × 10^−4 M) of 98%, a percent growth inhibition (HCT 15; HCT-15, 1 × 10^−5 M) of 26% and a percent growth inhibition (HCT 15; HCT-15, 1 × 10^−6 M) of 0%. The percent growth inhibition (Colo 205; Colo-205, 1 × 10^−4 M) was 40%, the percent growth inhibition (Colo 205; Colo-205, 1 × 10^−5 M) was 0% and the percent growth inhibition (Colo 205; Colo-205, 1 × 10^−6 M) was 0%.

`CC/C(=C(\c1ccccc1)c1ccc(OCCN(C)C)cc1)c1ccccc1` [Tamoxifen] showed an inhibition (SK N MC) of 27%, a percent growth inhibition (A 549) of 17% and an inhibition (NIH OVCAR5) of 20%.

Compound `O=C(/C=C/c1ccc(O)c(O[C@@H]2O[C@H](CO)[C@@H](O)[C@H](O)[C@H]2O)c1)c1ccc(O[C@@H]2O[C@H](CO)[C@@H](O)[C@H](O)[C@H]2O)cc1O` [Isobutrin] has a percent growth inhibition (SiHa; 1 × 10^−4 M) of 50%, a percent growth inhibition (SiHa; 1 × 10^−5 M) of 0% and a percent growth inhibition (SiHa; 1 × 10^−6 M) of 0%. For the same compound, the percent growth inhibition (HOP-62; HOP-62, 1 × 10^−4 M) was 65%, the percent growth inhibition (HOP-62; HOP-62, 1 × 10^−5 M) was 0% and the percent growth inhibition (HOP-62; HOP-62, 1 × 10^−6 M) was 0%. It also gave a percent growth inhibition (SW 620; SW620, 1 × 10^−4 M) of 85%, a percent growth inhibition (SW 620; SW 620, 1 × 10^−5 M) of 0% and a percent growth inhibition (SW 620; SW620, 1 × 10^−6 M) of 0%. For the same compound, the percent growth inhibition (HT 29; HT 29, 1 × 10^−5 M) was 10%, the percent growth inhibition (HT 29; HT-29, 1 × 10^−4 M) was 94% and the percent growth inhibition (HT 29; HT-29, 1 × 10^−6 M) was 0%. It also gave a percent growth inhibition (SK N SH; SK N SH, 1 × 10^−5 M) of 25%, a percent growth inhibition (SK N SH; SK-NSH, 1 × 10^−4 M) of 93% and a percent growth inhibition (SK N SH; SK-NSH, 1 × 10^−6 M) of 0%. For the same compound, the percent growth inhibition (HCT 15; HCT-15, 1 × 10^−4 M) was 99%, the percent growth inhibition (HCT 15; HCT-15, 1 × 10^−5 M) was 21% and the percent growth inhibition (HCT 15; HCT-15, 1 × 10^−6 M) was 0%. It also gave a percent growth inhibition (Colo 205; Colo-205, 1 × 10^−4 M) of 74%, a percent growth inhibition (Colo 205; Colo-205, 1 × 10^−5 M) of 0% and a percent growth inhibition (Colo 205; Colo-205, 1 × 10^−6 M) of 0%.

Compound `O=c1[nH]cc(F)c(=O)[nH]1` [5-Flurouracil, reference compound] has a percent growth inhibition (KB) of 9% and a percent growth inhibition (HCT 15; HCT 15, 2 × 10^−5 M) of 50%.
